This is an account of results in patent US20250222120A1, “SYNTHESIS OF NOVEL SMALL MOLECULE CARM1 DEGRADERS, COMPOUNDS FORMED THEREBY, AND PHARMACEUTICAL COMPOSITIONS CONTAINING THEM” (Wisconsin Alumni Research Foundation, priority 2024, published 2025).

For the assay, the target named is T1, CARM1 (Homo sapiens, UniProt Q86X55).
T1 sequence (Q86X55 1-608): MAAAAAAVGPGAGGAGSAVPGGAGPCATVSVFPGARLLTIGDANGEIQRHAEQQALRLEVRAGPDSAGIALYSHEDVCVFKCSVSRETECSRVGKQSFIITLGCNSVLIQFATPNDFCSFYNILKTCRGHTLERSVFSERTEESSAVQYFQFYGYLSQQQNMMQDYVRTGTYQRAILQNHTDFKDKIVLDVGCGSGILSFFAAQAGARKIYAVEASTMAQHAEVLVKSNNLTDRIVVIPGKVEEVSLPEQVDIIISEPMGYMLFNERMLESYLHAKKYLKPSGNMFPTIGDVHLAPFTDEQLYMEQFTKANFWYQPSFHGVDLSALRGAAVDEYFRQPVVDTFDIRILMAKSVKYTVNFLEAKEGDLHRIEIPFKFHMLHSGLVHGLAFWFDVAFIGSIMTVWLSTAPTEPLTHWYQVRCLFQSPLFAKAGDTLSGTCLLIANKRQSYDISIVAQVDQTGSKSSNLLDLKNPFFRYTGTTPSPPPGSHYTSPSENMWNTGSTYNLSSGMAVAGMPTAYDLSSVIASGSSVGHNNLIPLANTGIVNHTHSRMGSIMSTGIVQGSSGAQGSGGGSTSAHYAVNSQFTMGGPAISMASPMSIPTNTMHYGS
Kind of assay: Global proteomics of MCF7 cells, CARM1 level. The assay is classed as cell-based. Also on record: we performed a global quantitative proteomic analysis of MCF7 cells using mass spectrometry; endogenous in cells; host or cells: MCF7. To be noted: 25 nM, 4 h, versus DMSO. The method, then: Sample preparation for global proteomics analysis. Sample preparation is similar to the previous report (Ma et al. “Strategy Based on Deglycosylation, Multiprotease, and Hydrophilic Interaction Chromatography for Large-Scale Profiling of Protein Methylation” Anal. Chem. 2017, 89 (23), 12909-12917). Briefly, treated MCF7 cells were harvested by washing with PBS buffer (Gibco, pH 7.4) and lysed in RIPA buffer supplemented with protease inhibitors for 20 min, then protein concentration was determined using a BCA Protein Assay Kit (Thermo Pierce, Rockford, IL) per manufacturer instructions. […] The concentrations of the peptide mixture were measured by peptide assay (Thermo Fisher Scientific). […]
LC-MS/MS data acquisition. Samples were analyzed on an Orbitrap Fusion Lumos Tribrid mass spectrometer (Thermo Fisher Scientific) coupled to a Dionex UltiMate 3000 UPLC system. […]
Data analysis. Protein identification and quantification by MaxQuant (version 1.5.3.8) based database searching, using the integrated Andromeda search engine with FDR <1% at peptide and protein levels. […] For label-free protein quantification (LFQ), the MaxQuant LFQ algorithm was used to quantitate the MS signals, and the proteins' intensities were represented in LFQintesnit (Schaab et al. “Analysis of High Accuracy, Quantitative Proteomics Data in the MaxQB Database” Mol. Cell. Proteomics 2012, 11 (3), M111.014068). […]

As for `CNCCN1CCC(c2cc(CN(C)C(=O)c3cccc(Oc4ccc(OCC(=O)N5CCC(CN6CCC(CN7CCN(CC(=O)N[C@H](C(=O)N8C[C@H](O)C[C@H]8C(=O)N[C@@H](C)c8ccc(-c9scnc9C)cc8)C(C)(C)C)CC7)CC6)CC5)cc4)c3)ccn2)CC1` [Compound 3b, (2S,4R)-1-((S)-3,3-dimethyl-2-(2-(4-((1-((1-(2-(4-(3-(methyl((2-(1-(2-(methylamino)ethyl)piperidin-4-yl)pyridin-4-yl)methyl)carbamoyl)phenoxy)phenoxy)acetyl)piperidin-4-yl)methyl)piperidin-4-yl)methyl)piperazin-1-yl)acetamido)butanoyl)-4-hydroxy-N—((S)-1-(4-(4-methylthiazol-5-yl)phenyl)ethyl)pyrrolidine-2-carboxamide], the “CARM1 protein level in proteomics” value was “significant downregulation”.
